pKi: −log10 of the molar value.
Legend:
Serotonin (5-HT) uptake = Serotonin (5-HT) uptake (Rattus norvegicus (Rat), UniProt P31652); assay: Serotonin (5-HT) uptake inhibitory activity by rat brain synaptosome; assay type: biochemical; conditions: test compound 300 nM, rat frontal cortex synaptosome; read-out: Serotonin uptake inhibitory ratio (%) (300 nM)
Procedure: Measurement of Serotonin (5-HT) Uptake Inhibitory Activity of a Test Compound by Rat Brain Synaptosome
Wistar male rats were decapitated, the brain was retrieved and frontal cortex was dissected out, and it was homogenized in 0.32 M sucrose solution of a weight 20 times of the weight of the tissue using a Potter type homogenizer. The homogenate was centrifuged at 4° C., 1,000×g for 10 minutes, the obtained supernatant was further centrifuged at 4° C., 20,000×g for 20 minutes, and the pellet was suspended in an incubation buffer (20 mM Hepes buffer (pH 7.4) containing 10 mM glucose, 145 mM sodium chloride, 4.5 mM potassium Chloride, 1.2 mM magnesium chloride, 1.5 mM calcium chloride), which was used as crude synaptosome fraction.
5-HT uptake reaction was performed in a volume of 200 μl using a 96-well round bottom plate and pargyline (final concentration 10 μM) and sodium ascorbate (final concentration 0.2 mg/ml) were contained in the incubation buffer upon reaction and used.
Incubation buffer (total counting), non-labeled 5-HT (final concentration 10 μM, non-specific counting) and the diluted test compound (final concentration 300 nM) were added to each well. One-tenth quantity of the final volume of the synaptosome fraction was added and after preincubated at 37° C. for 10 minutes, tritium labeled 5-HT solution (final concentration 8 nM) was added and uptake reaction was started at 37° C. The uptake time was 10 minutes and the reaction was terminated by vacuum filtration through a 96-well fiber glass filter paper plate, and after the filter paper was washed with cold normal saline, it was dried enough and Microscint0 (Perkin-Elmer) was added to the filter and remaining radioactivity on the filter was measured.

Dopamine D2 receptor = Dopamine D2 receptor (Rattus norvegicus (Rat), UniProt P61169); assay: Dopamine D2 receptor binding assay ([3H]-raclopride, rat corpus striatum membrane); conditions: Ki from IC50 by Cheng-Prussoff formula
Chain of Dopamine D2 receptor (P61169 whole entry): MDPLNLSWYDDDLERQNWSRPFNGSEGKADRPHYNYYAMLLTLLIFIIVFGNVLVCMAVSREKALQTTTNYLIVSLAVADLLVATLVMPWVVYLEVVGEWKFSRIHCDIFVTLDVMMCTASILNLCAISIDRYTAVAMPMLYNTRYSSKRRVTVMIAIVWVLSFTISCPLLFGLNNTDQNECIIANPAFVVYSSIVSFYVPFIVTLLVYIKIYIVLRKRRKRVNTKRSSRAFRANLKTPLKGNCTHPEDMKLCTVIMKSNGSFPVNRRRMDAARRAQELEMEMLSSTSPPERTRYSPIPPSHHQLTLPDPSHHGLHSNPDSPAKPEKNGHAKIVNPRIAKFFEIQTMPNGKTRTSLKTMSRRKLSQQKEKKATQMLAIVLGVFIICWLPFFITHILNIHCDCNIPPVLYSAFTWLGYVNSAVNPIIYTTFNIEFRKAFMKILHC
Procedure: Pharmacological Test 1 1) Dopamine D2 Receptor Binding Assay
Wistar male rats were decapitated, the brain was retrieved immediately and corpus striatum was taken out. It was homogenized in 50 mM tris(hydroxymethyl)aminomethane (Tris)-hydrochloric acid buffer (pH 7.4) of a volume 50 times of the weight of the tissue using a homogenizer with a high-speed rotating blade, and centrifuged at 4° C., 48,000×g for 10 minutes. The obtained precipitate was suspended again in the above-described buffer of a volume 50 times of the weight of the tissue and after incubated at 37° C. for 10 minutes, centrifuged in the above-described condition. The obtained precipitate was suspended in 50 mM (Tris)-hydrochloric acid buffer (containing 120 mM NaCl, 5 mM KCl, 2 mM CaCl2, 1 mM MgCl2, pH 7.4) of a volume 25 times of the weight of the tissue and preserved by freezing at −85° C. till it was used for binding assay as a membrane specimen.
The binding assay was performed using 40 μl of the membrane specimen, 20 μl of [^3H]-raclopride (final concentration 1 to 2 nM), 20 μl of a test drug and 50 mM Tris-hydrochloric acid buffer (containing 120 mM NaCl, 5 mM KCl, 2 mM CaCl2, 1 mM MgCl2, pH 7.4) so that the total amount was 200 μl (final dimethylsulfoxide concentration 1%). The reaction was performed at room temperature for 1 hour and terminated by conducting suction filtration with a cell harvester on a glass fiber filter plate. The filter plate made of glass fiber was washed with 50 mM Tris-hydrochloric acid buffer (pH 7.4), and after dried, a microplate liquid scintillation cocktail was added and the radioactivity was measured with a microplate scintillation counter. Radioactivity in the presence of 10 μM (+)-butaclamol hydrochloride was assumed as nonspecific binding.
(§1) IC50 value was calculated from concentration-dependent reaction using a non-linear analysis program. Ki value was calculated from IC50 value using Cheng-Prussoff formula.

[1] = target: Serotonin 5-HT2A receptor (Rattus norvegicus (Rat), UniProt P14842); assay: Serotonin 5-HT2A receptor binding assay ([3H]-Ketanserin, rat frontal cortex membrane); conditions: Ki from IC50 by Cheng-Prussoff formula
Chain of Serotonin 5-HT2A receptor (P14842 whole entry): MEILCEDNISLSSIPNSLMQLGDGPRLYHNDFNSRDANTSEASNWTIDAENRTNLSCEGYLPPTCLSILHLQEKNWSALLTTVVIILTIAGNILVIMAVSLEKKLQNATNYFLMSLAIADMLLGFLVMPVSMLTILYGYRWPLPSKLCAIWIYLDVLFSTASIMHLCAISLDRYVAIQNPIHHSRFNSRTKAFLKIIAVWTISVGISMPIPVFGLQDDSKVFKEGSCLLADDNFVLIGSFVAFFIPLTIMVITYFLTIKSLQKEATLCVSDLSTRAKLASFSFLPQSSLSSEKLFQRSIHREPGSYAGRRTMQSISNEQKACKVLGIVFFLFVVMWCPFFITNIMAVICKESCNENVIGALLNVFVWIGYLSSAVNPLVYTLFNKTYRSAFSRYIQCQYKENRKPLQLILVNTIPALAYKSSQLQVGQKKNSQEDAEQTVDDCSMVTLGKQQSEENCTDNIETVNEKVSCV
Procedure: 2) Serotonin 5-HT2A Receptor Binding Assay
The assay was performed according to the method by Leysen J E et al. (Leysen J E, Niemegeers C J E, Van Nueten J M and Laduron P M. [3H] Ketanserin (R 41 468), a selective 3H-ligand for serotonin 2 receptor binding sites. Mol. Pharmacol., 1982, 21: 301-314).
Wistar male rats were decapitated, the brain was retrieved immediately and frontal cortex was taken out. It was homogenized in 0.25 M sucrose of a volume 10 times of the weight of the tissue using a Teflon glass homogenizer, and centrifuged at 4° C., 1,000×g for 10 minutes. The obtained supernatant was transferred to another centrifuge tube and suspended in 0.25 M sucrose of a volume 5 times of the weight of the tissue and the precipitate was centrifuged in the above-described condition. The obtained supernatant was combined with the supernatant obtained above and adjusted to a volume 40 times of the weight of the tissue with 50 mM Tris-hydrochloric acid buffer (pH 7.4), and centrifuged at 4° C., 35,000×g for 10 minutes. The obtained precipitate was suspended again in the above-described buffer of a volume 40 times of the weight of the tissue and centrifuged in the above-described condition. The obtained precipitate was suspended in the above-described buffer of a volume 20 times of the weight of the tissue and preserved by freezing at −85° C. till it was used for binding assay as a membrane specimen.
The binding assay was performed using 40 μl of the membrane specimen, 20 μl of [^3H]-Ketanserin (final concentration 1 to 3 nM), 20 μl of a test drug and 50 mM Tris-hydrochloric acid buffer (pH 7.4) so that the total amount was 200 μl (final dimethylsulfoxide concentration 1%). The reaction was performed at 37° C. for 20 minutes and terminated by conducting suction filtration with a cell harvester on a glass fiber filter plate.
The filter plate made of glass fiber was washed with 50 mM Tris-hydrochloric acid buffer (pH 7.4), and after dried, a microplate liquid scintillation cocktail was added and the radioactivity was measured with a microplate scintillation counter. Radioactivity in the presence of 10 μM spiperone was assumed as nonspecific binding.
as §1

[2] = target: Human recombinant dopamine D2 receptor (Homo sapiens (Human), UniProt P14416); conditions: forskolin-stimulated D2 expressing CHO/DHFR(-) cells, control drug
Chain of Human recombinant dopamine D2 receptor (P14416 whole entry): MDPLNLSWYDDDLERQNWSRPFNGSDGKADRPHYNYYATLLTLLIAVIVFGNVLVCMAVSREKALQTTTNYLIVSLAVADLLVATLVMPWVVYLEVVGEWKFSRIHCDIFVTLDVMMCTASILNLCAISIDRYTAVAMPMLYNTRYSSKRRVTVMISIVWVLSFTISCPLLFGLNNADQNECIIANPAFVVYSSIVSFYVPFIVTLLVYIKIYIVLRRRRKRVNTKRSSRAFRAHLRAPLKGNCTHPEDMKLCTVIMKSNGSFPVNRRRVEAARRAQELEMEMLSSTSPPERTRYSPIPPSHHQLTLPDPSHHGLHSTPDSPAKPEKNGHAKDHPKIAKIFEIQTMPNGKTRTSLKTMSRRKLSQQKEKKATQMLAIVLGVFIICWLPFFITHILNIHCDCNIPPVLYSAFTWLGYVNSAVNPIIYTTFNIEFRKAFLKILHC
Procedure: Partial agonistic activity on dopamine D2 receptor was evaluated by quantitatively determining cyclic AMP production inhibitory effect of a test compound in dopamine D2 receptor expression cells in which adenosine 3′,5′-cyclic monophosphate (cyclic AMP) production was induced by forskolin stimulation.
Human recombinant dopamine D2 receptor expressing Chinese hamster ovary/DHFR(−) cells were cultured in a culture medium (Iscove's Modified Dulbecco's Medium (IMDM culture medium), 10% fetal bovine serum, 50 I.U./ml penicillin, 50 μg/ml streptomycin, 200 μg/ml geneticin, 0.1 mM sodium hypoxanthine, 16 μM thymidine) at 37° C. and 5% carbon dioxide condition. Cells were seeded at 10^4 cells/well on a 96-well microtiter plate coated with poly-L-lysine and grown under the same condition for 2 days. Each well was washed with 100 μl of a culture medium (IMDM culture medium, 0.1 mM sodium hypoxanthine, 16 μM thymidine).

Chain of Serotonin (5-HT) uptake (P31652 whole entry): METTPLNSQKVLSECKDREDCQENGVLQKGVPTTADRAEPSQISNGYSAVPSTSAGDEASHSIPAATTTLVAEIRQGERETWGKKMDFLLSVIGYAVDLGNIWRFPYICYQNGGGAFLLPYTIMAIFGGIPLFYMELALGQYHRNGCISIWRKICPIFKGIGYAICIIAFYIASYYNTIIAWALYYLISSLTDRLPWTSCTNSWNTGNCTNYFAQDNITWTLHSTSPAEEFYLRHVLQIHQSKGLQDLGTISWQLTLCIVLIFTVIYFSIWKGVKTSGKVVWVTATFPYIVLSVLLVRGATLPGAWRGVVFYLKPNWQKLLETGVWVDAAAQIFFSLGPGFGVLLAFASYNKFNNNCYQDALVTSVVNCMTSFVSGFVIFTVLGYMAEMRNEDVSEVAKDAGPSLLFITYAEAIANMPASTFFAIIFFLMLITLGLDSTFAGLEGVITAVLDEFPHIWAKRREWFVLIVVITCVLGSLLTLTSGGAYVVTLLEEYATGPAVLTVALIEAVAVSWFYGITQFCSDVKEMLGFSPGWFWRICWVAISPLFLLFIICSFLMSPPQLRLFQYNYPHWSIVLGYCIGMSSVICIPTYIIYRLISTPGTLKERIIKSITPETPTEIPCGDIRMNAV

| SMILES | inhibition at 0.3 µM (Serotonin (5-HT) uptake) [%] | pKi (Dopamine D2 receptor) | pKi [1] | quantity of cyclic AMP as the maximum activity (well without test compound = 100%) [2] |
| --- | --- | --- | --- | --- |
| NCCc1ccc(O)c(O)c1 [dopamine] | – | – | – | about 10% |
| CC1CC(=O)Nc2cc(OCCCCN3CCN(c4cccc5sccc45)CC3)ccc21 (stereo not shown) [Example 16, 7-[4-(4-benzo[b]thiophen-4-yl-piperazin-1-yl)butoxy]-4-methyl-3,4-dihydro-1H-quinolin-2-one] | 86.7 | 9.15 | 8.15 | – |
| O=C1CCc2ccc(OC/C=C/CN3CCN(c4cccc5sccc45)CC3)cc2N1 [Example 15, 7-[4-(4-benzo[b]thiophen-4-yl-piperazin-1-yl)-(E)-2-butenyloxy]-3,4-dihydro-1H-quinolin-2-one] | 87.2 | 9.70 | 8.48 | – |
| O=c1c2ccccc2ccn1CCCCN1CCN(c2cccc3sccc23)CC1 [Example 34, 2-[4-(4-benzo[b]thiophen-4-yl-piperazin-1-yl)butyl]-2H-isoquinolin-1-one] | 94.2 | 8.92 | 8.82 | – |
| O=C1c2ccccc2CCN1CCCCCN1CCN(c2cccc3sccc23)CC1 [Example 24, 2-[5-(4-benzo[b]thiophen-4-yl-piperazin-1-yl)pentyl]-3,4-dihydro-2H-isoquinolin-1-one] | 97.5 | 8.30 | 8.64 | – |
| CCN1CCc2cc(OCCCN3CCN(c4cccc5sccc45)CC3)ccc2C1=O [Example 27, 6-[3-(4-benzo[b]thiophen-4-yl-piperazin-1-yl)propoxy]-2-ethyl-3,4-dihydro-2H-isoquinolin-1-one] | 94 | 8.31 | 8.39 | – |
| O=c1ccc2ccc(OCCCCN3CCN(c4cccc5sccc45)CC3)cc2[nH]1 [Example 1, 7-[4-(4-benzo[b]thiophen-4-yl-piperazin-1-yl)butoxy]-1H-quinolin-2-one] | 92.4 | 9.70 | 8.64 | – |

Results, then the compound that gave them:

| inhibition at 0.3 µM (Serotonin (5-HT) uptake) [%] | pKi (Dopamine D2 receptor) | pKi [1] | quantity of cyclic AMP as the maximum activity (well without test compound = 100%) [2] | SMILES |
| --- | --- | --- | --- | --- |
| 91.6 | 8.32 | 8.29 | – | O=c1[nH]ccc2cc(OCCCN3CCN(c4cccc5sccc45)CC3)ccc12 [Example 40, 6-[3-(4-benzo[b]thiophen-4-yl-piperazin-1-yl)propoxy]-2H-isoquinolin-1-one] |
| 91 | 9.30 | 8.40 | – | O=c1ccc2ccc(OCCCN3CCN(c4cccc5sccc45)CC3)cc2[nH]1 [Example 7, 7-[3-(4-benzo[b]thiophen-4-yl-piperazin-1-yl)propoxy]-1H-quinolin-2-one] |
| 84.8 | 9.30 | 8.64 | – | Cc1cc(=O)[nH]c2cc(OCCCN3CCN(c4cccc5sccc45)CC3)ccc12 [Example 3, 7-[3-(4-benzo[b]thiophen-4-yl-piperazin-1-yl)propoxy]-4-methyl-1H-quinolin-2-one] |
| 89.1 | 9.22 | 8.19 | – | Cc1cc2ccc(OCCCN3CCN(c4cccc5sccc45)CC3)cc2[nH]c1=O [Example 5, 7-[3-(4-benzo[b]thiophen-4-yl-piperazin-1-yl)propoxy]-3-methyl-1H-quinolin-2-one] |
| 92.6 | 9.40 | 8.52 | – | O=C1CCc2ccc(OCCCN3CCN(c4cccc5sccc45)CC3)cc2N1 [Example 10, 7-[3-(4-benzo[b]thiophen-4-yl-piperazin-1-yl)propoxy]-3,4-dihydro-1H-quinolin-2-one] |

From patent US9206167B2, “Piperazine-substituted benzothiophenes for treatment of mental disorders” (Otsuka Pharmaceutical Co., Ltd., priority 2005, dated 2015)
